Measured values published in paper PMC4919791, “Effect of curcumin analogs onα-synuclein aggregation and cytotoxicity” (Scientific Reports, 2016).
Entries after “also recorded” stand apart in the source; their conditions may differ.

Tests used:
[1] = molecular target: T1, preformed α-Syn fibrils (Homo sapiens, UniProt P37840); experiment: Calcein-AM/EthD-1 staining, preformed α-Syn fibrils with analogs; format: cell-based; settings: SH-SY5Y cells
T1 construct: made in house; host or cells: Escherichia coli BL21
Protocol: Previously it has been shown that curcumin decreases the toxicity of α-Syn amyloid fibrils by reducing the exposed hydrophobic surfaces. To delineate whether curcumin analogs can decrease the toxicity of preformed α-Syn fibrils, we performed cell viability assay. For this, 10-days incubated α-Syn solution was centrifuged (fibril formation was confirmed by electron microscopy (EM)) and the pelleted fibrils were then re-dissolved in same volume of 20 mM MES buffer (pH 6.0, 0.01% NaN3). The concentration of the fibrils was determined by subtraction of supernatant concentration from the original concentration of α-Syn kept for fibrillation. […] After incubation, we measured the effect of curcumin analogs on the toxicity of preformed α-Syn amyloid fibrils by MTT reduction assay on SH-SY5Y cells. […]
For this assay, SH-SY5Y cells were seeded in 96 well plate and incubated with identical concentrations of oligomers/fibrils (as used in MTT assay) in absence and presence of curcumin and its analogs for 36 h in 5% CO2 incubator at 37 °C. […] Calcein-AM/Ethidium homodimer-1 signal was then checked and imaged with an inverted fluorescence microscope (Leica DMi8). […] The free calcein emits strong fluorescence signal at ~535 nm, which could be easily observed in the green channel of a microscope. […]

[2] = molecular target: T2, preformed α-Syn amyloid fibrils (Homo sapiens, UniProt P37840); experiment: MTT assay of preformed α-Syn fibrils incubated with curcumin analogs; format: cell-based; settings: fibrils incubated with analog 48 h at 37 °C; SH-SY5Y cells
T2 construct: made in house; host or cells: Escherichia coli BL21
Protocol: The concentration of the fibrils was determined by subtraction of supernatant concentration from the original concentration of α-Syn kept for fibrillation.

[3] = Stability of curcumin analogs by time-dependent intrinsic fluorescence; format: physicochemical; settings: 20 mM MES buffer pH 6.0, 0.01% NaN3, 37 °C
Protocol: 1μl of this DMSO-stock solution was transferred to 2 ml microfuge tube and 1 ml of 20 mM MES buffer (pH 6.0, 0.01% NaN3) was added to it and mixed immediately by vortexing. These solutions were incubated at 37 °C and their respective fluorescence was taken at certain time intervals. The fluorescence was monitored by placing the 200 μl of the incubated solution in 0.1 cm path-length quartz cuvette (Hellma, Forest Hills, NY) and the spectra were acquired by using FluoroMax-4 spectrofluorometer (HORIBA JobinYvon) instrument with excitation and emission slit widths of 5 nm and 10 nm respectively. The fluorescence intensity maxima for each sample were plotted against time of incubation and fitted in exponential decay 1 in the Origin 8.0 software according to manufacture’s protocol (Fig. 2A).

[4] = molecular target: T3, α-Syn fibrils (Homo sapiens, UniProt P37840); experiment: MTT assay of α-Syn fibrils formed in presence of curcumin analogs; format: cell-based; settings: 10 μM α-Syn fibril, 36 h, SH-SY5Y
T3 construct: made in house; host or cells: Escherichia coli BL21
Protocol: Next, we measured the effect of α-Syn fibrils formed in presence and absence of curcumin analogs on the viability of SH-SY5Y neuronal cell line by MTT reduction assay. SH-SY5Y cells were incubated with 10 μM α-Syn fibril formed in presence of various curcumin analogs for 36 h. […] However, the extent of decrease in toxicity was different for different analogs. […] The calcein-AM/ethidium homodimer-1 staining also further corroborated the results obtained from MTT and LDH assay (Fig. 8C).

[5] = molecular target: T1, preformed α-Syn fibrils; experiment: CD spectroscopy of preformed α-Syn fibrils with analogs; format: biochemical; settings: 0 h and 48 h of incubation
Protocol: Further, the effect of curcumin analogs on the secondary structure of protein in preformed amyloid fibrils was studied by circular dichroism (CD) spectroscopy at 0 h and after 48 h of incubation. […] To further validate this, Fourier transform infrared spectroscopy (FTIR) was also performed with these samples, where spectra were recorded from 1500 to 1800 cm^−1.The region characteristic of protein secondary structures (1600–1700 cm^−1) was deconvoluted and the peaks were assigned according to published reports. FTIR spectra in the 1600–1700 cm^−1 region of preformed α-Syn fibrils in absence and presence of curcumin and its analogs are presented in Figs 4B and S4 and their percentage of secondary structures are shown in Table-S1.
20 μl of protein solution from 80 μM stock was diluted to 200 μl in 20 mM MES buffer, pH 6.0 with 0.01% NaN3 such that final protein concentration becomes 8 μM. The protein solution was then placed into a quartz cell (Hellma, Forest Hills, NY) of 0.1 cm path-length. Spectra were recorded using JASCO-810 instrument at 25 °C. Spectra acquisition was over the wavelength range of 198–260 nm with the scan speed of 100 nm/min, bandwidth 1 nm, data pitch 1 nm and response time of 1 sec. Processing of raw data was done by subtraction of buffer spectra and subsequently smoothing according to the manufacturer’s instructions.

COc1cc(/C=C/C(=O)CC(=O)/C=C/c2ccc(OCc3ccccc3)c(OC)c2)ccc1OCc1ccccc1 [C6]
Calcein-AM/EthD-1 staining with preformed α-Syn fibrils [1]: less nuclear staining by EthD-1 | cell viability, MTT, preformed α-Syn fibrils incubated with analog [2]: 92.9% | effect on toxicity of preformed α-Syn fibrils, MTT [2]: reduction in toxicity | relative stability compared with curcumin (slope of normalized fluorescence versus time) [3]: relatively more stable than curcumin | toxicity of α-Syn fibrils formed in presence of analog, MTT [4]: maximum cell viability; also recorded: less toxicity to cells | secondary structure of preformed α-Syn fibrils by CD [5]: remains unaltered
